Legend:
Assay in all cases: relative viability (nuclei count vs DMSO), 5 days (fraction); higher = more cells survive
Zosuquidar + Phenformin = compound: O[C@@H](COc1cccc2ncccc12)CN1CCN([C@@H]2c3ccccc3[C@@H]3[C@H](c4ccccc42)C3(F)F)CC1 [Zosuquidar] + N=C(N)NC(=N)NCCc1ccccc1 [Phenformin] (partner 250 µM)
How it was run: (§1)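 One day after seeding in 1536-well plates, lung cancer cell lines were dosed by pin tool. Dosing was either single-drug or a fixed anchor-drug dose plus five library-drug doses (not always all listed) in √10 steps. After 5 days, nuclei were stained in one fix-and-stain step and counted on 4× images, and relative viability is the nuclei count of treated wells over that of vehicle wells, given as the median of duplicate plates.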

Kobe2602 + Alpelisib = compound: C1=CC(=CC=C1NC(=S)NNC2=C(C=C(C=C2[N+](=O)[O-])C(F)(F)F)[N+](=O)[O-])F [Kobe2602] + Cc1nc(NC(=O)N2CCC[C@H]2C(N)=O)sc1-c1ccnc(C(C)(C)C(F)(F)F)c1 [Alpelisib] (partner 2 µM)
How it was run: as §1

[1] = compound: COc1cc2nccc(Oc3ccc(NC(=O)C4(C(=O)Nc5ccc(F)cc5)CC4)cc3)c2cc1OC [Cabozantinib] + Nc1ncn([C@H]2C[C@H](O)[C@@H](CO)O2)c(=O)n1 [Decitabine] (partner 2 µM)
How it was run: as §1

Zosuquidar + Pictilisib = compound: O[C@@H](COc1cccc2ncccc12)CN1CCN([C@@H]2c3ccccc3[C@@H]3[C@H](c4ccccc42)C3(F)F)CC1 [Zosuquidar] + CS(=O)(=O)N1CCN(Cc2cc3nc(-c4cccc5[nH]ncc45)nc(N4CCOCC4)c3s2)CC1 [Pictilisib] (partner 1 µM)
How it was run: as §1

Row | Cell Line | relative viability (Zosuquidar + Phenformin; first compound 0.01 µM) | relative viability (Zosuquidar + Phenformin; first compound 0.03162 µM) | relative viability (Zosuquidar + Phenformin; first compound 0.1 µM) | relative viability (Zosuquidar + Phenformin; first compound 0.3162 µM) | relative viability (Zosuquidar + Phenformin; first compound 1 µM) | relative viability (Kobe2602 + Alpelisib; first compound 0.2 µM) | relative viability (Kobe2602 + Alpelisib; first compound 0.6325 µM) | relative viability (Kobe2602 + Alpelisib; first compound 2 µM) | relative viability (Kobe2602 + Alpelisib; first compound 6.325 µM) | relative viability (Kobe2602 + Alpelisib; first compound 20 µM) | relative viability ([1]; first compound 0.02 µM) | relative viability ([1]; first compound 0.06325 µM) | relative viability ([1]; first compound 0.2 µM) | relative viability ([1]; first compound 0.6325 µM) | relative viability ([1]; first compound 2 µM) | relative viability (Zosuquidar + Pictilisib; first compound 0.01 µM) | relative viability (Zosuquidar + Pictilisib; first compound 0.03162 µM) | relative viability (Zosuquidar + Pictilisib; first compound 0.1 µM) | relative viability (Zosuquidar + Pictilisib; first compound 1 µM) | relative viability (Zosuquidar + Pictilisib; first compound 0.3162 µM)
1 | NCI-H441 | 0.903 | 0.845 | 0.643 | 0.832 | 0.916 | 0.725 | 0.864 | 0.682 | 0.704 | 0.727 | 0.204 | 0.24 | 0.241 | 0.273 | 0.231 | 0.449 | 0.435 | 0.512 | 0.595 | –
2 | A549 | 0.19 | 0.176 | 0.145 | 0.255 | 0.172 | 0.716 | 0.905 | 0.74 | 0.846 | 0.789 | 0.298 | 0.26 | 0.263 | 0.313 | 0.306 | 0.532 | 0.497 | 0.494 | 0.496 | 0.487
3 | NCI-H2342 | 0.581 | 0.558 | 0.49 | 0.581 | 0.623 | – | – | – | – | – | 0.642 | 0.832 | 0.765 | 0.788 | 0.544 | – | – | – | – | –
4 | NCI-H1623 | 0.622 | 0.662 | 0.537 | 0.613 | 0.576 | – | – | – | – | – | – | – | – | – | – | – | – | – | – | –
5 | LCLC-97TM1 | 0.409 | 0.442 | 0.46 | 0.454 | 0.445 | 0.26 | 0.26 | 0.228 | 0.202 | 0.262 | 0.24 | 0.262 | 0.252 | 0.265 | 0.21 | 0.203 | 0.219 | – | 0.226 | 0.192
6 | NCI-H2087 | 0.426 | – | 0.363 | 0.545 | 0.492 | 1.27 | 1.08 | 1.09 | 1.11 | 1.03 | 0.311 | 0.279 | 0.303 | 0.306 | 0.212 | 0.894 | 0.844 | 0.791 | 0.853 | 1
7 | NCI-H647 | 0.531 | 0.39 | 0.453 | 0.592 | 0.462 | 1.23 | 1.37 | 1.11 | 1.21 | 1.12 | 0.383 | 0.534 | 0.441 | 0.433 | 0.391 | 0.493 | 0.316 | 0.463 | 0.466 | 0.4
8 | Calu-6 | – | – | – | – | – | 0.883 | 1.04 | 0.96 | 1 | 0.987 | – | – | – | – | – | 0.855 | 0.942 | 1.02 | 0.918 | 0.976
9 | LCLC-103H | 0.306 | 0.314 | 0.255 | 0.356 | 0.331 | 0.897 | 0.944 | 0.961 | 1.02 | 0.985 | 0.716 | 0.791 | 0.722 | 0.721 | 0.748 | 0.541 | 0.569 | 0.542 | 0.737 | 0.607
10 | HCC-15 | 0.44 | 0.441 | 0.436 | 0.497 | 0.504 | 0.797 | 0.938 | 0.875 | 0.849 | 0.885 | 0.562 | 0.788 | 0.683 | 0.644 | 0.536 | 0.686 | 0.778 | 0.753 | 0.854 | 0.801
11 | H3255 | 0.34 | 0.373 | 0.326 | 0.38 | 0.36 | 0.655 | 0.679 | 0.662 | 0.63 | 0.741 | 0.618 | 0.636 | – | 0.685 | 0.644 | 0.49 | 0.565 | 0.412 | 0.42 | 0.526
12 | NCI-H1650 | 0.391 | 0.321 | 0.383 | 0.443 | 0.353 | – | – | – | – | – | 0.386 | 0.401 | 0.365 | 0.514 | 0.548 | 0.555 | 0.688 | 0.531 | 0.586 | 0.686
13 | NCI-H522 | 0.654 | 0.606 | 1.07 | 0.682 | 0.62 | – | – | – | – | – | 0.577 | 0.655 | 0.564 | 0.74 | 0.654 | – | – | – | – | –
14 | ChaGo-K-1 | 0.573 | 0.419 | 0.554 | 0.506 | 0.51 | – | – | – | – | – | 0.551 | 0.52 | 0.549 | 0.534 | 0.547 | 0.858 | 0.563 | 1.27 | 0.637 | 0.882
15 | NCI-H1648 | – | – | – | – | – | – | – | – | – | – | 0.469 | 0.524 | – | 0.532 | 0.516 | – | – | – | – | –
16 | NCI-H1703 | – | – | – | – | – | 0.313 | 0.347 | 0.333 | 0.392 | 0.306 | – | – | – | – | – | 0.239 | 0.238 | 0.244 | 0.238 | 0.233
17 | EBC-1 | – | – | – | – | – | 0.876 | 0.963 | 0.958 | 0.839 | 0.894 | – | – | – | – | – | 0.41 | 0.52 | 0.395 | 0.377 | 0.458
18 | NCI-H1563 | 0.671 | 0.681 | 0.595 | 0.666 | 0.683 | 0.939 | 0.917 | 0.871 | 0.839 | 1.08 | – | – | – | – | – | 0.596 | 0.632 | 0.622 | 0.661 | 0.664
19 | IA-LM | – | – | – | – | – | – | 0.778 | 0.602 | 0.683 | 0.751 | – | – | – | – | – | 0.306 | 0.394 | 0.342 | 0.324 | 0.315

Source: the supplement of paper PMC10307832
